Numbers after ± are expanded uncertainties.
Assay: activity coefficient (dimensionless); of the first substance listed, at infinite dilution; xn = mol fraction of the nth substance listed
Conditions: Liquid, Chromatography, x1 = 0

SMILES | activity coefficient (323.15 K) | activity coefficient (333.15 K) | activity coefficient (343.15 K)
C#CCCCCC [1-heptyne] + Cn1cc[n+](COCCCOC[n+]2ccn(C)c2)c1.O=S(=O)([N-]S(=O)(=O)C(F)(F)F)C(F)(F)F.O=S(=O)([N-]S(=O)(=O)C(F)(F)F)C(F)(F)F | 5.9 ± 0.4 | 6.09 ± 0.42 | 5.71 ± 0.39
C#CCCCCC [1-heptyne] + N#C[N-]C#N.N#C[N-]C#N.c1ccc(Cn2cc[n+](COCCCOC[n+]3ccn(Cc4ccccc4)c3)c2)cc1 | 19.1 ± 1.3 | 17.2 ± 1.2 | 15.9 ± 1.1
C#CCCCC [1-hexyne] + CCCCCCCCn1cc[n+](COCCC)c1C.N#C[N-]C#N | 1.73 ± 0.12 | 2.14 ± 0.15 | 2.01 ± 0.14
C#CCCCC [1-hexyne] + CCCCCCCCn1cc[n+](COCCC)c1C.O=S(=O)([N-]S(=O)(=O)C(F)(F)F)C(F)(F)F | 1.39 ± 0.09 | 1.36 ± 0.09 | 1.34 ± 0.09
C#CCCCC [1-hexyne] + CCCCCCCCn1cc[n+](COCCCOC[n+]2ccn(CCCCCCCC)c2C)c1C.N#C[N-]C#N.N#C[N-]C#N | 1.72 ± 0.12 | 1.68 ± 0.11 | 1.63 ± 0.11
C#CCCCC [1-hexyne] + CCCCCCCCn1cc[n+](COCCCOC[n+]2ccn(CCCCCCCC)c2C)c1C.O=S(=O)([N-]S(=O)(=O)C(F)(F)F)C(F)(F)F.O=S(=O)([N-]S(=O)(=O)C(F)(F)F)C(F)(F)F | 1.13 ± 0.07 | 1.13 ± 0.07 | 1.14 ± 0.07
C#CCCCC [1-hexyne] + CCCOC[n+]1ccc(N(C)C)cc1.O=S(=O)([N-]S(=O)(=O)C(F)(F)F)C(F)(F)F | 2.51 ± 0.17 | 2.5 ± 0.17 | 2.5 ± 0.17
C#CCCCC [1-hexyne] + CCCOC[n+]1ccn(C)c1.F[B-](F)(F)F | 10.3 ± 0.7 | 10.1 ± 0.69 | 9.44 ± 0.64
C#CCCCC [1-hexyne] + CCCOC[n+]1ccn(C)c1.N#C[N-]C#N | 6.98 ± 0.48 | 7.6 ± 0.52 | –
C#CCCCC [1-hexyne] + CCCOC[n+]1ccn(C)c1.O=S(=O)([N-]S(=O)(=O)C(F)(F)F)C(F)(F)F | 3.39 ± 0.23 | 3.4 ± 0.23 | 3.4 ± 0.23
C#CCCCC [1-hexyne] + CCCOC[n+]1ccn(Cc2ccccc2)c1.F[B-](F)(F)F | 5.61 ± 0.38 | 5.52 ± 0.38 | 5.42 ± 0.37
C#CCCCC [1-hexyne] + CCCOC[n+]1ccn(Cc2ccccc2)c1.N#C[N-]C#N | 4.41 ± 0.3 | 4.29 ± 0.29 | –
C#CCCCC [1-hexyne] + CCCOC[n+]1ccn(Cc2ccccc2)c1.O=S(=O)([N-]S(=O)(=O)C(F)(F)F)C(F)(F)F | 2.14 ± 0.15 | 2.35 ± 0.16 | –
C#CCCCC [1-hexyne] + CN(C)c1cc[n+](COCCCOC[n+]2ccc(N(C)C)cc2)cc1.O=S(=O)([N-]S(=O)(=O)C(F)(F)F)C(F)(F)F.O=S(=O)([N-]S(=O)(=O)C(F)(F)F)C(F)(F)F | 3 ± 0.2 | 2.96 ± 0.2 | 2.92 ± 0.2
C#CCCCC [1-hexyne] + Cn1cc[n+](COCCCOC[n+]2ccn(C)c2)c1.N#C[N-]C#N.N#C[N-]C#N | 15.8 ± 1.1 | 15.2 ± 1 | 14.6 ± 1
C#CCCCC [1-hexyne] + Cn1cc[n+](COCCCOC[n+]2ccn(C)c2)c1.O=S(=O)([N-]S(=O)(=O)C(F)(F)F)C(F)(F)F.O=S(=O)([N-]S(=O)(=O)C(F)(F)F)C(F)(F)F | 3.81 ± 0.26 | 3.68 ± 0.25 | 3.4 ± 0.23
C#CCCCC [1-hexyne] + N#C[N-]C#N.N#C[N-]C#N.c1ccc(Cn2cc[n+](COCCCOC[n+]3ccn(Cc4ccccc4)c3)c2)cc1 | 14.1 ± 0.96 | 11.7 ± 0.8 | –
CCC[N+](=O)[O-] [1-nitropropane] + CCCCCCCCn1cc[n+](COCCC)c1C.N#C[N-]C#N | 0.76 ± 0.05 | 0.75 ± 0.05 | 0.75 ± 0.05
CCC[N+](=O)[O-] [1-nitropropane] + CCCCCCCCn1cc[n+](COCCC)c1C.O=S(=O)([N-]S(=O)(=O)C(F)(F)F)C(F)(F)F | 0.54 ± 0.04 | 0.53 ± 0.04 | 0.53 ± 0.04
CCC[N+](=O)[O-] [1-nitropropane] + CCCCCCCCn1cc[n+](COCCCOC[n+]2ccn(CCCCCCCC)c2C)c1C.N#C[N-]C#N.N#C[N-]C#N | 0.59 ± 0.04 | 0.58 ± 0.04 | 0.58 ± 0.04
CCC[N+](=O)[O-] [1-nitropropane] + CCCCCCCCn1cc[n+](COCCCOC[n+]2ccn(CCCCCCCC)c2C)c1C.O=S(=O)([N-]S(=O)(=O)C(F)(F)F)C(F)(F)F.O=S(=O)([N-]S(=O)(=O)C(F)(F)F)C(F)(F)F | 0.34 ± 0.03 | 0.33 ± 0.03 | 0.32 ± 0.03
CCC[N+](=O)[O-] [1-nitropropane] + CCCOC[n+]1ccc(N(C)C)cc1.O=S(=O)([N-]S(=O)(=O)C(F)(F)F)C(F)(F)F | 0.68 ± 0.05 | 0.69 ± 0.05 | 0.69 ± 0.05

— the NIST ThermoML archive (doi:10.1016/j.fluid.2014.11.020)
